Legend:
MEFs = experiment: RNA-seq gene expression; assay type: cell-based, mouse
Text: RNA-seq. Sequencing results were demultiplexed and converted to FASTQ format using Illumina bcl2fastq software. The sequencing reads were adapter and quality trimmed with Trimmomatic and then aligned to the mouse genome (build mm10/GRCm38) using the splice-aware STAR aligner. The featureCounts program was utilized to generate counts for each gene based on how many aligned reads overlap its exons. These counts were then normalized and used to test for differential expression using negative binomial generalized linear models implemented by the DESeq2 R package.

U2OS cells = experiment: Mitochondrial fusion in U2OS cells

For `Cc1cccc(NC(C)c2cc(Cl)ccc2O)c1C` (stereo not drawn) [MFI8, 4-Chloro-2-(1-((2,3-dimethylphenyl)amino)ethyl)phenol], the “expression of genes involved in DNA damage response” value (MEFs; MEFs) was “up-regulated several genes that are involved in DNA damage response”, the “gene expression of subunits of the respiratory complexes” value (MEFs; RNA-seq) was “reduced the gene expression of several nuclear-encoded subunits of the respiratory complexes” and the mitochondrial fusion (U2OS cells) was “inhibited mitochondrial fusion”.

From patent US20240366540A1, “MITOFUSIN INHIBITORS AND USES THEREOF” (Albert Einstein College of Medicine, priority 2021, published 2024)
